Experimental data published in the kinase profiling compilation of Christmann-Franck et al. (2016).

Assays:
Assay in all cases: radiometric filter-binding kinase assay, Kinase HotSpot
Conditions in all cases: compound 0.5 µM; ATP 10 µM
[1] = molecular target: NEK7 (human) (UniProt Q8TDX7)
[2] = molecular target: OXSR1 (human) (UniProt O95747)
[3] = molecular target: FYN (human) (UniProt P06241)
[4] = molecular target: RPS6KA6 KD1 KD2 (human) (UniProt Q9UK32)
[5] = molecular target: PRKX (human) (UniProt P51817)
Sequence of PRKX (human) (P51817 whole entry, looked up): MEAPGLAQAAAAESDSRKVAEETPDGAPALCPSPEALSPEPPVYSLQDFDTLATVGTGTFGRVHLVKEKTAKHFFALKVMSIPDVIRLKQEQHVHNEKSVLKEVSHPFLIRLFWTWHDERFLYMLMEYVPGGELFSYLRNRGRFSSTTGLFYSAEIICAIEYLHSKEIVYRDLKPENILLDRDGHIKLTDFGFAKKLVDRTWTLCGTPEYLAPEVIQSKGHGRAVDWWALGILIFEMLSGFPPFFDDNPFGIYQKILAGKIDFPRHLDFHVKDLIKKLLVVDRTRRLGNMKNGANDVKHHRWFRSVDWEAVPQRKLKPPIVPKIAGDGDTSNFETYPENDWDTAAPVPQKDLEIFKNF

[6] = molecular target: MATK (human) (UniProt P42679)
[7] = molecular target: PAK2 (human) (UniProt Q13177)
Sequence of PAK2 (human) (Q13177 whole entry, looked up): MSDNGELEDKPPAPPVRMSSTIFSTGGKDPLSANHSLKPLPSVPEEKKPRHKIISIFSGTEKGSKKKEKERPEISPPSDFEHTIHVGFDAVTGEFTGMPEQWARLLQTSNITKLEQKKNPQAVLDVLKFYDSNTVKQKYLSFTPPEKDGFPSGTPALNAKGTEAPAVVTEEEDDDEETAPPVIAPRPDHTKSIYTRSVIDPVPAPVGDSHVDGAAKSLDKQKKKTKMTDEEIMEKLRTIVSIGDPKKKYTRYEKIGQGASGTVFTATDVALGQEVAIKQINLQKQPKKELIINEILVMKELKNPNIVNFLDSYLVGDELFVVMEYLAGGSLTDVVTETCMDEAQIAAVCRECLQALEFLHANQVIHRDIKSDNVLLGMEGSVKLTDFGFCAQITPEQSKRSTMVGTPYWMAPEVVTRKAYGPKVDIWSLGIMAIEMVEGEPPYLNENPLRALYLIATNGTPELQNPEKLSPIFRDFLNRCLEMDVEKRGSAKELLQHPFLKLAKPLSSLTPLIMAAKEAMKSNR

[8] = molecular target: PTK2 (human) (UniProt Q05397)
[9] = molecular target: IKBKE (human) (UniProt Q14164)
Sequence of IKBKE (human) (Q14164 whole entry, looked up): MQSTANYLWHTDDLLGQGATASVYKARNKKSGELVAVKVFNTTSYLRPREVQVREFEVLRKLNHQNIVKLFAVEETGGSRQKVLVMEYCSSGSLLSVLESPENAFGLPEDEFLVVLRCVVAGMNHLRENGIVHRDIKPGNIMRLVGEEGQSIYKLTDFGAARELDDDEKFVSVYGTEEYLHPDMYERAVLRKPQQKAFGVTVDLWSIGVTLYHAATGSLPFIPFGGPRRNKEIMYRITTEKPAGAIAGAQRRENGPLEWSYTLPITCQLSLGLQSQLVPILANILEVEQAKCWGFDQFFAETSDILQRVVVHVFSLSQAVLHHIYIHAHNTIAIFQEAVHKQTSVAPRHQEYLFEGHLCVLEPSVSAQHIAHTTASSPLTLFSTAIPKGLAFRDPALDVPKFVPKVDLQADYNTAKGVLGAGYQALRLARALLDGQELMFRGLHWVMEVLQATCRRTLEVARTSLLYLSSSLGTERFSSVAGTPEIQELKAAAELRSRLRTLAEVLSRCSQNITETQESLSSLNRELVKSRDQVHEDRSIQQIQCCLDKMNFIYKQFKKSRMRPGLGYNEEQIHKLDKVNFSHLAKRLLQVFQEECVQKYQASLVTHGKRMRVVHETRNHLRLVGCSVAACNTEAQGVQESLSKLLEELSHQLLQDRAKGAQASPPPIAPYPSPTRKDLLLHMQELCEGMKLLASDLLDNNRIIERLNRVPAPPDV

[10] = molecular target: CSNK1G2 (human) (UniProt P78368)
[11] = molecular target: PIM1 (human) (UniProt P11309)
Sequence of PIM1 (human) (P11309 whole entry, looked up): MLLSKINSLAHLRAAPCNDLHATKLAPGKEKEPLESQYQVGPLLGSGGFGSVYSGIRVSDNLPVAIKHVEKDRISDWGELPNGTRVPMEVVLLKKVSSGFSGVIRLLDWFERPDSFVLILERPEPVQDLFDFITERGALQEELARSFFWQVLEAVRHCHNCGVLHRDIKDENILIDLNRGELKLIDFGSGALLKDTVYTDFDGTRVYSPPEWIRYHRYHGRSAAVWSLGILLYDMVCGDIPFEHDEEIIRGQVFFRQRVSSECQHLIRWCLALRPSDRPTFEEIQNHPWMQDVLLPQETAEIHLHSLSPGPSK

[12] = molecular target: STK24 (human) (UniProt Q9Y6E0)
[13] = molecular target: RIPK2 (human) (UniProt O43353)
[14] = molecular target: MST4 (human) (UniProt Q9P289)
[15] = molecular target: NTRK3 (human) (UniProt Q16288)
[16] = molecular target: MUSK (human) (UniProt O15146)
[17] = molecular target: MAP4K5 (human) (UniProt Q9Y4K4)
[18] = molecular target: CAMK4 (human) (UniProt Q16566)
Sequence of CAMK4 (human) (Q16566 whole entry, looked up): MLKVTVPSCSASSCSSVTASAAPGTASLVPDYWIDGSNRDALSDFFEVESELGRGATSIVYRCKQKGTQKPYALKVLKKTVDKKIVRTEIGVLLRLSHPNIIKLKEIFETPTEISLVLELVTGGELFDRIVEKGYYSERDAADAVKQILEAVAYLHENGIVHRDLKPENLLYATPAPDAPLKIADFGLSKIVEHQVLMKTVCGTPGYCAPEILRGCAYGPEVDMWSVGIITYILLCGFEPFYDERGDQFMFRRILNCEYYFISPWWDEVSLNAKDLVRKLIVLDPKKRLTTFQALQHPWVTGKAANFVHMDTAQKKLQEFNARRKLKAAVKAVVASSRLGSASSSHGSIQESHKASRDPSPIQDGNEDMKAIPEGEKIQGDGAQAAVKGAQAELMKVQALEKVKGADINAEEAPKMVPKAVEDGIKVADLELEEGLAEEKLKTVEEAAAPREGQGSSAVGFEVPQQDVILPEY

[19] = molecular target: CDC42BPB (human) (UniProt Q9Y5S2)
[20] = molecular target: TGFBR2 (human) (UniProt P37173)
[21] = molecular target: HCK (human) (UniProt P08631)
[22] = molecular target: TTK (human) (UniProt P33981)
[23] = molecular target: PRKG2 (human) (UniProt Q13237)
[24] = molecular target: MET (human) (UniProt P08581)
[25] = molecular target: PTK6 (human) (UniProt Q13882)
[26] = molecular target: FGFR1 (human) (UniProt P11362)
[27] = molecular target: MARK1 (human) (UniProt Q9P0L2)
[28] = molecular target: EPHA2 (human) (UniProt P29317)
[29] = molecular target: EPHA8 (human) (UniProt P29322)
[30] = molecular target: CAMK2G (human) (UniProt Q13555)
[31] = molecular target: NEK1 (human) (UniProt Q96PY6)
[32] = molecular target: NUAK2 (human) (UniProt Q9H093)
[33] = molecular target: PRKCB1 (human) (UniProt P05771)
Sequence of PRKCB1 (human) (P05771 whole entry, looked up): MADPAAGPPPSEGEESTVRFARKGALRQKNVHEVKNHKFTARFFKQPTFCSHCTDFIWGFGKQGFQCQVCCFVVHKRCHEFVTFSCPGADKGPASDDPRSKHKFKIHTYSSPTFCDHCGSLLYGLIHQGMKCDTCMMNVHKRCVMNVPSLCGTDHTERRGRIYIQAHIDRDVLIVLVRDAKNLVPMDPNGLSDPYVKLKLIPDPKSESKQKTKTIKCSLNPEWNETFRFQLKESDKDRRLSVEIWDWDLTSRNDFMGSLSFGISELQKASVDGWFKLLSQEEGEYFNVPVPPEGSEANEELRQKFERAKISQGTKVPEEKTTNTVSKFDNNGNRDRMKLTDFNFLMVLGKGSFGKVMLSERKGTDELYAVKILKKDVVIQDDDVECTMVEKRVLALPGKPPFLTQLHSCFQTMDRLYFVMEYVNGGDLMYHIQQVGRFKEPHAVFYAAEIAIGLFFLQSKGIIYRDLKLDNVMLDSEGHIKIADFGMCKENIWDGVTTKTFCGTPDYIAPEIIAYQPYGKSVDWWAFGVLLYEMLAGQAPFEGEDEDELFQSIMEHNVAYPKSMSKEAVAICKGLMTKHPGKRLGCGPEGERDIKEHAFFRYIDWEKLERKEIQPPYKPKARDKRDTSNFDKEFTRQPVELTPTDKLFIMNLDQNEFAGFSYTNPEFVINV

[34] = molecular target: CAMK2A (human) (UniProt Q9UQM7)
[35] = molecular target: ADRBK2 (human) (UniProt P35626)
[36] = molecular target: MAPK9 (human) (UniProt P45984)
[37] = molecular target: INSR (human) (UniProt P06213)
[38] = molecular target: EPHA3 (human) (UniProt P29320)
[39] = molecular target: NEK6 (human) (UniProt Q9HC98)
[40] = molecular target: SLK (human) (UniProt Q9H2G2)
Sequence of SLK (human) (Q9H2G2 whole entry, looked up): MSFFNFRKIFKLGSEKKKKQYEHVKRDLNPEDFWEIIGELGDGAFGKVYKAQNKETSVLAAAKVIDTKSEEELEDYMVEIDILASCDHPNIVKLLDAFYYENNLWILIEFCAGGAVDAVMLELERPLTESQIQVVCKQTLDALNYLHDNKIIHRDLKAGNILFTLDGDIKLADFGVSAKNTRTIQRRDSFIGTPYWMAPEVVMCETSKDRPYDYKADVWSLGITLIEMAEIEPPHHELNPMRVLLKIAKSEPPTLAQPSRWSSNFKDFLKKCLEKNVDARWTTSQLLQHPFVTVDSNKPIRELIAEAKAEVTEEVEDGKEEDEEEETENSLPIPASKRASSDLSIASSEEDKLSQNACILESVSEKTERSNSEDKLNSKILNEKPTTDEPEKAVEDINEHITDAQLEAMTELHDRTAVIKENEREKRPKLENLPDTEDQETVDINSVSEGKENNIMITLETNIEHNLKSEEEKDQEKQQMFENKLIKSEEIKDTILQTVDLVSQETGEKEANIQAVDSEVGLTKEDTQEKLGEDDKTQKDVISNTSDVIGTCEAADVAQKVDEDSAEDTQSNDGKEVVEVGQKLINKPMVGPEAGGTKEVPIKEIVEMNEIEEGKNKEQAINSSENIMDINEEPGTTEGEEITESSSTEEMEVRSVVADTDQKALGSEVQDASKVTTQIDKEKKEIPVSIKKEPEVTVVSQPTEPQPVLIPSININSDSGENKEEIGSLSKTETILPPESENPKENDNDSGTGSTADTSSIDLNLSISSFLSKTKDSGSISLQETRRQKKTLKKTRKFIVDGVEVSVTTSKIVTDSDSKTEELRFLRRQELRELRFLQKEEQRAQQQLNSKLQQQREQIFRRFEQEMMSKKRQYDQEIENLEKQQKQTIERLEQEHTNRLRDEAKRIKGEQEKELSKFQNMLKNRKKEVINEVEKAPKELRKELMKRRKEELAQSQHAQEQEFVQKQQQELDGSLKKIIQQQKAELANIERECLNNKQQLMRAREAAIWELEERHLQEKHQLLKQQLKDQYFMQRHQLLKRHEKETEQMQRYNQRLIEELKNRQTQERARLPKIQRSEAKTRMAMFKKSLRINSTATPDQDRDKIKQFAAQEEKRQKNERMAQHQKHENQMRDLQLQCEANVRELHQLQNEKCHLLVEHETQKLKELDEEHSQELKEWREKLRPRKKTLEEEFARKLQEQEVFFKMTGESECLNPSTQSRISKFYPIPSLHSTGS

[41] = molecular target: DYRK3 (human) (UniProt O43781)

Sequence of FYN (human) (P06241 whole entry, looked up): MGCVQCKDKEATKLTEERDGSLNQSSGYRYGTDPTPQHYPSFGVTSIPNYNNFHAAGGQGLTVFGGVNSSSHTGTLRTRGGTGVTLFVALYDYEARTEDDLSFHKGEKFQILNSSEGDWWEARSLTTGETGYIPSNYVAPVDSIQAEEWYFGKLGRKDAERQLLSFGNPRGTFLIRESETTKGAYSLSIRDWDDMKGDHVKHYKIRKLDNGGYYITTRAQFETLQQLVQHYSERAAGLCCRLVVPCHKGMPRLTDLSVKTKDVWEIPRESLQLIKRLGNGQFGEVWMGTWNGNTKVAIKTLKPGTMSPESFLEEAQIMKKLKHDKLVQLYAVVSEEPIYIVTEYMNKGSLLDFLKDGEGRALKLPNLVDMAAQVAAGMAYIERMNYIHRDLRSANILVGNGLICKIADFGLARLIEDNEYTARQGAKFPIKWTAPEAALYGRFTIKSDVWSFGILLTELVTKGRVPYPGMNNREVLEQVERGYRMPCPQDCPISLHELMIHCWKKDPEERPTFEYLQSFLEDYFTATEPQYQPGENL

Q: Which residual activity [1] does the source give for `CC[n+]1c(/C=C/N(C)c2ccccc2)n(-c2ccccc2)c2ccc(-c3nc4ccccc4s3)cc21` here?
A: 95.4%

Q: What about the residual activity [2] of the same compound?
A: 94.2%

Q: And the residual activity [3]?
A: 99.2%

Q: What about the residual activity [4] of the same compound?
A: 96%

Q: And the residual activity [5]?
A: 108%

Q: What about the residual activity [6] of the same compound?
A: 96.4%

Q: What about the residual activity [7] of the same compound?
A: 97.3%

Q: What about the residual activity [8] of the same compound?
A: 108%

Q: And the residual activity [9]?
A: 94.7%

Q: And the residual activity [10]?
A: 101%

Q: What about the residual activity [11] of the same compound?
A: 102%

Q: And the residual activity [12]?
A: 99.2%

Q: And the residual activity [13]?
A: 88.6%

Q: What about the residual activity [14] of the same compound?
A: 93.7%

Q: What about the residual activity [15] of the same compound?
A: 100%

Q: And the residual activity [16]?
A: 94.7%

Q: And the residual activity [17]?
A: 91.7%

Q: And the residual activity [18]?
A: 93.2%

Q: And the residual activity [19]?
A: 95%

Q: And the residual activity [20]?
A: 95.1%

Q: What about the residual activity [21] of the same compound?
A: 104%

Q: What about the residual activity [22] of the same compound?
A: 96.6%

Q: What about the residual activity [23] of the same compound?
A: 92.4%

Q: And the residual activity [24]?
A: 108%

Q: What about the residual activity [25] of the same compound?
A: 90.2%

Q: What about the residual activity [26] of the same compound?
A: 97.4%

Q: And the residual activity [27]?
A: 104%

Q: What about the residual activity [28] of the same compound?
A: 100%

Q: What about the residual activity [29] of the same compound?
A: 96.3%

Q: And the residual activity [30]?
A: 103%

Q: What about the residual activity [31] of the same compound?
A: 102%

Q: And the residual activity [32]?
A: 93.3%

Q: And the residual activity [33]?
A: 102%

Q: What about the residual activity [34] of the same compound?
A: 103%

Q: What about the residual activity [35] of the same compound?
A: 97.4%

Q: What about the residual activity [36] of the same compound?
A: 94.6%

Q: And the residual activity [37]?
A: 94%

Q: What about the residual activity [38] of the same compound?
A: 99.4%

Q: And the residual activity [39]?
A: 96.1%

Q: What about the residual activity [40] of the same compound?
A: 101%

Q: And the residual activity [41]?
A: 98.7%
